Results reported in article PMC10279527, “Structural basis of metabolite transport by the chloroplast outer envelope channel OEP21” (Nature Structural & Molecular Biology, 2023).
pKd: −log10 of the molar value. “And” between values parts separate entries of the source, which are not always exact repeats. Identical values can stand only once. Like-named read-outs stand apart in the source and are kept apart here.

Biological target: T1, OEP21 wt (Pisum sativum, UniProt Q9SM57)
T1 construct: made in house
Experiment: Fluorescence polarization (FP) binding of MANT-ATP (or MANT-GMPPNP) to OEP21-WT, also at varied NaCl and MgCl2
Parameters: species or system garden pea
Protocol: FP assays were performed on a spectrofluorometer FP-8300 (Jasco) equipped with a water bath cooling system MCM-100 (Jasco). […] A buffer containing no EDTA was used when MgCl2 was present. […] KD values were derived by fitting the data to a one-site binding model. […] All FP experiments were performed as triplicates.

T1 sequence (Q9SM57 whole entry): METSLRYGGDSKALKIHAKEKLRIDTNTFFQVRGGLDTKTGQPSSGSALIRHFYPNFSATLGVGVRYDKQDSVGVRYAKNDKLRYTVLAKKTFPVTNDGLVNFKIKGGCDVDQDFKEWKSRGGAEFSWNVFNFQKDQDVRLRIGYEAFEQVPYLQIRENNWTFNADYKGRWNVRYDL

**Q.** “2′-(or-3′)-O-(N-methylanthraniloyl) adenosine 5′-triphosphate [Mant-ATP]” was tested. Which pKd (MgCl2 0 mM, individual determinations, read-out: KD1-KD3) did it give?
**A.** 6.74 and 6.77 and 6.71

**Q.** And the pKd (MgCl2 0 mM, read-out: mean KD)?
**A.** 6.74

**Q.** What about the “rel KD1-KD3” value (MgCl2 0 mM, relative to mean KD at 0 mM MgCl2) of the same substance?
**A.** 1.011 and 0.9286 and 1.06

**Q.** What about the pKd (MgCl2 1 mM, individual determinations, read-out: KD1-KD3) of the same substance?
**A.** 6.35 and 6.18 and 5.99

**Q.** What about the pKd (MgCl2 1 mM, read-out: mean KD) of the same substance?
**A.** 6.15

**Q.** What about the pKd (MgCl2 10 mM, individual determinations, read-out: KD1-KD3) of the same substance?
**A.** 5.93 and 5.57 and 5.62

**Q.** What about the pKd (MgCl2 10 mM, read-out: mean KD) of the same substance?
**A.** 5.68

**Q.** What about the pKd (MgCl2 50 mM, individual determinations, read-out: KD1-KD3) of the same substance?
**A.** 5.19 and 5.05 and 5.06

**Q.** What about the pKd (MgCl2 50 mM, read-out: mean KD) of the same substance?
**A.** 5.10

**Q.** What about the “rel KD1-KD3” value (MgCl2 50 mM, relative to mean KD at 0 mM MgCl2) of the same substance?
**A.** 35.3077 and 48.8077 and 47.4286

**Q.** And the Kd (NaCl 0 M, individual determinations, nM printed only in the MgCl2 head (r11) of this sheet, read-out: KD1-KD3)?
**A.** 184 nM and 169 nM and 193 nM

**Q.** What about the pKd (NaCl 0 M, read-out: mean KD) of the same substance?
**A.** 6.74

**Q.** And the “rel KD1-KD3” value (NaCl 0 M, relative to mean KD at 0 M NaCl)?
**A.** 1.011 and 0.9286 and 1.06

**Q.** And the Kd (NaCl 0.5 M, individual determinations, nM, read-out: KD1-KD3)?
**A.** 241 nM and 192 nM and 264 nM

**Q.** What about the pKd (NaCl 0.5 M, read-out: mean KD) of the same substance?
**A.** 6.63

**Q.** And the “rel KD1-KD3” value (NaCl 0.5 M, relative to mean KD at 0 M NaCl)?
**A.** 1.324 and 1.055 and 1.451

**Q.** And the Kd (NaCl 1 M, individual determinations, nM, read-out: KD1-KD3)?
**A.** 2600 nM and 2460 nM and 3130 nM

**Q.** What about the pKd (NaCl 1 M, read-out: mean KD) of the same substance?
**A.** 5.56

**Q.** And the “rel KD1-KD3” value (NaCl 1 M, relative to mean KD at 0 M NaCl)?
**A.** 14.2912 and 13.5385 and 17.1923

**Q.** What about the Kd (NaCl 2 M, individual determinations, nM, read-out: KD1-KD3) of the same substance?
**A.** 18.4 µM and 21.4 µM (2×)

**Q.** And the pKd (NaCl 2 M, read-out: mean KD)?
**A.** 4.69

**Q.** And the “rel KD1-KD3” value (NaCl 2 M, relative to mean KD at 0 M NaCl)?
**A.** 101.319 and 117.56 and 117.418

**Q.** And the pKd (OEP21 wt, individual determinations, unit inferred, read-out: KD1-KD3)?
**A.** 6.74 and 6.77 and 6.71

**Q.** And the “rel KD1-KD3” value (OEP21 wt, relative to mean KD of wt)?
**A.** 1.011 and 0.9286 and 1.06

**Q.** What about the pKd (OEP21 wt, unit inferred, read-out: mean KD) of the same substance?
**A.** 6.74
